Active and inactive are the calls of the source.
How the values were obtained:
[1] = target: T1, Polyadenylate-binding protein 1 (Homo sapiens, UniProt P11940); assay: PABP1 MLLE–PAM2 interaction inhibitors, dose response, miRNA deadenylation inhibitor project, biochemical, fluorescence polarization, Cy5-PAM2 peptide, secondary (AID 602260); assay type: functional; settings: read-out: IC50_Mean
[2] = target: T1, Polyadenylate-binding protein 1; assay: PABP1 MLLE–PAM2 binding inhibitor potency, dose response, biochemical, fluorescence polarization, FITC-PAM2 peptide (AID 602259); assay type: functional; settings: read-out: IC50_Mean
[3] = target: T2, Cytochrome P450 1A2 (Homo sapiens, UniProt P05177);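 further: PubChem cytochrome P450 panel assay, CYP1A2 panel member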
T2 sequence (P05177 whole entry): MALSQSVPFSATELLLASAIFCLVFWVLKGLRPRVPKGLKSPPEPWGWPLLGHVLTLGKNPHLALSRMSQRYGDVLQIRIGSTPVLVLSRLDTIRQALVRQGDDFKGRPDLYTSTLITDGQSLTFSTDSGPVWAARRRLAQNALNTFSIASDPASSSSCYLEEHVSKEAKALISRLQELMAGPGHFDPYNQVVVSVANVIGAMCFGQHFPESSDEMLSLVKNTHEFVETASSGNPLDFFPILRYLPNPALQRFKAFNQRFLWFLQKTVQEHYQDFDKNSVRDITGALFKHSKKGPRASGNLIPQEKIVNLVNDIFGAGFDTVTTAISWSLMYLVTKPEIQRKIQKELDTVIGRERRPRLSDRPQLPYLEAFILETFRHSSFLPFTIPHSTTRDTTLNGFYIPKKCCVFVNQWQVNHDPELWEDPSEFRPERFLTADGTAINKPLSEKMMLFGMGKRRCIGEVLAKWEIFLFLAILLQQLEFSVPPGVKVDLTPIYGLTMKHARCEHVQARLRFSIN

[4] = target: T3, Cytochrome P450 3A4 (Homo sapiens, UniProt P08684);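 further: CYP3A4 tested as one member of a cytochrome P450 panel screen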
[5] = cytotoxicity in MIN6 insulinoma cells, dose response, cytotoxicity control, cell-based, mouse insulinoma (AID 2122); assay type: functional;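 further: confirmatory high-throughput counterscreen run to flag cytotoxic compounds; mouse MIN-6 beta cells carrying an insulin promoter eGFP reporter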
[6] = Shn3 3'UTR reporter inhibitors, dose response, cell-based, Clone20 osteoblasts, firefly luciferase, cherry-picked (AID 624132); assay type: functional;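 further: firefly luciferase luminescence from reporter carrying the Shn3 3'UTR in osteoblasts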
[7] = HepG2 cell cytotoxicity, dose response, cytotoxicity control for Shn3 inhibitor project, CellTiter-Glo, cherry-picked (AID 624134); assay type: functional, cell-based
[8] = insulin promoter down-regulators in MIN6 cells, imaging, high-content screening, mouse beta cells (AID 1628); assay type: functional
[9] = control 3'UTR Renilla luciferase suppression, dose response, counter-screen for Shn3 inhibitor project, cell-based, Clone20-Shn3RL, cherry-picked (AID 624133); assay type: functional
[10] = microbe, parasite or virus in culture; assay type: functional; settings: Mycobacterium tuberculosis
[11] = target: T4, Estrogen receptor (Homo sapiens, UniProt P03372);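 further: potency for inhibiting coactivator peptide recruitment to the receptor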
T4 sequence (P03372 whole entry): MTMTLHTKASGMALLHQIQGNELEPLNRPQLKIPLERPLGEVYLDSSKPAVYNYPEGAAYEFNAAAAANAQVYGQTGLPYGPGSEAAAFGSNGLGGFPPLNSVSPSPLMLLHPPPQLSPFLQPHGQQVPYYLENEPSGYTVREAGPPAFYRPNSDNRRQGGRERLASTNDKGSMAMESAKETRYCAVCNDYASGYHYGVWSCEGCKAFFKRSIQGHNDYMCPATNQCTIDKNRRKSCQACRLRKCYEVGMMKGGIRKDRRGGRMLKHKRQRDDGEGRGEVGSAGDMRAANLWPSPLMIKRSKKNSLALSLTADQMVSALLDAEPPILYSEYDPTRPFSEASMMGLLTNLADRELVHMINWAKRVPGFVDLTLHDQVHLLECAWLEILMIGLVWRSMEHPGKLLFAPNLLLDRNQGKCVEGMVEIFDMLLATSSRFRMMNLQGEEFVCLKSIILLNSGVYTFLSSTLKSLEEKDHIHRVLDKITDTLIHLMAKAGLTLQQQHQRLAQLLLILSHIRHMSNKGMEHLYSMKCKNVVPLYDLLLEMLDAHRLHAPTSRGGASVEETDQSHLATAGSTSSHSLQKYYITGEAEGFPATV

[12] = target: T5, Fatty acid synthase (Homo sapiens, UniProt P49327); assay: FAS thioesterase domain inhibitors, dose response, biochemical, endpoint fluorescence intensity, uHTS hits (AID 624327); assay type: functional;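 further: fluorescence from hydrolysis of an O-methyl fluorescein acyl ester substrate by the enzyme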
[13] = target: T5, Fatty acid synthase; assay: FAS thioesterase domain inhibitors, dose response, biochemical, kinetic fluorescence intensity (AID 624326); assay type: functional;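 further: rate of fluorescence rise from hydrolysis of a fluorogenic O-methyl fluorescein ester substrate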
[14] = target: Cytochrome P450 2D6 (Homo sapiens, UniProt P10635);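 further: CYP2D6 member of a cytochrome P450 panel assay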
[15] = target: T3, Cytochrome P450 3A4; remark: listed apart in the source
[16] = target: Cytochrome P450 2C9 (Homo sapiens, UniProt P11712)
[17] = target: T6, Endoribonuclease toxin MazF (Escherichia coli K-12, UniProt P0AE70); assay: fluorescent RNA oligo signal without MazF, dose response, counter-screen for MazEF activator project, biochemical, fluorescence, single-stranded RNase substrate (AID 588502); assay type: functional
T6 sequence (P0AE70 whole entry): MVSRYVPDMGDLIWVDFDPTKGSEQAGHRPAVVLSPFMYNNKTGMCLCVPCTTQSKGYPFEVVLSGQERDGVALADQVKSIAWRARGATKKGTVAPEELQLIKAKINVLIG

[18] = target: T6, Endoribonuclease toxin MazF; assay: MazF toxin RNase activators, dose response, biochemical, fluorescence, single-stranded RNA substrate, uHTS hits (AID 588481); assay type: functional
[19] = target: T7, Leucine aminopeptidase (Plasmodium falciparum 3D7, UniProt Q8IL11); assay: P. falciparum M17LAP inhibitors, primary screen, biochemical, fluorogenic H-Leu-NHMec substrate, 1536-well (AID 1619); assay type: functional
T7 sequence (Q8IL11 whole entry): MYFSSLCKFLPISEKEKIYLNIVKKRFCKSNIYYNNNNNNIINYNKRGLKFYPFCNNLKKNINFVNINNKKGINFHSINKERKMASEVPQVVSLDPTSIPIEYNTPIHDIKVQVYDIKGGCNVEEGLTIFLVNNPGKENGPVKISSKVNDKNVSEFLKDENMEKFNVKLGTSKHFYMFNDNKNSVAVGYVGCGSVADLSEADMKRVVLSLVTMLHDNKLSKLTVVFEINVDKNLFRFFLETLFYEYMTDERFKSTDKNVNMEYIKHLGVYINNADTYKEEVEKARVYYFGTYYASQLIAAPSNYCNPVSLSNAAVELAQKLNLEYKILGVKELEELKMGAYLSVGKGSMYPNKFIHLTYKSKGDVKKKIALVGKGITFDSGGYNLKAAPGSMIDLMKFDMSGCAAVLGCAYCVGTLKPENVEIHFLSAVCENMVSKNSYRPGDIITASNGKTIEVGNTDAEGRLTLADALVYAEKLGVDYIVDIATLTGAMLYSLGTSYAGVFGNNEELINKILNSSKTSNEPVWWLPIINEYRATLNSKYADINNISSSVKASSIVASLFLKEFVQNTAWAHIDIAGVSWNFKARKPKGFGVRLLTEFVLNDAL

[20] = target: Cytochrome P450 2C19 (Homo sapiens, UniProt P33261); assay: Cytochrome panel assay with activity outcomes. Panel member name: p450-cyp2c19 Compounds with AC50 equal or less than 10 uM are considered active; assay type: functional; settings: read-out: AC50
[21] = NIH-3T3 fibroblast cytotoxicity, dose response, cytotoxicity control, cell-based, fluorescence, Alamar Blue, secondary assay (AID 2327); assay type: functional;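 further: NIH-3T3 mouse fibroblasts cultured with fluconazole at 8 µg/mL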
[22] = C. albicans growth with fluconazole, confirmation, fluorescence, retest (AID 2467); assay type: functional, cell-based
[23] = inhibitors of intracellular T. cruzi replication, confirmation, NIH3T3 host cells, beta-gal luminescence (AID 2044); assay type: functional, cell-based;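 further: intracellular parasites grown in NIH/3T3 mouse fibroblasts as host cells; luminescent beta-galactosidase reporter signal from transgenic T. cruzi replicating inside host cells; inhibitors lower the luminescence signal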
[24] = cytotoxicity toward NIH3T3 fibroblasts, dose response, counter-screen, cell-based, ATP luminescence, mouse fibroblasts (AID 2010); assay type: functional;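 further: cells exposed to compound for about 90 hours before reading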

T1 sequence (P11940 whole entry): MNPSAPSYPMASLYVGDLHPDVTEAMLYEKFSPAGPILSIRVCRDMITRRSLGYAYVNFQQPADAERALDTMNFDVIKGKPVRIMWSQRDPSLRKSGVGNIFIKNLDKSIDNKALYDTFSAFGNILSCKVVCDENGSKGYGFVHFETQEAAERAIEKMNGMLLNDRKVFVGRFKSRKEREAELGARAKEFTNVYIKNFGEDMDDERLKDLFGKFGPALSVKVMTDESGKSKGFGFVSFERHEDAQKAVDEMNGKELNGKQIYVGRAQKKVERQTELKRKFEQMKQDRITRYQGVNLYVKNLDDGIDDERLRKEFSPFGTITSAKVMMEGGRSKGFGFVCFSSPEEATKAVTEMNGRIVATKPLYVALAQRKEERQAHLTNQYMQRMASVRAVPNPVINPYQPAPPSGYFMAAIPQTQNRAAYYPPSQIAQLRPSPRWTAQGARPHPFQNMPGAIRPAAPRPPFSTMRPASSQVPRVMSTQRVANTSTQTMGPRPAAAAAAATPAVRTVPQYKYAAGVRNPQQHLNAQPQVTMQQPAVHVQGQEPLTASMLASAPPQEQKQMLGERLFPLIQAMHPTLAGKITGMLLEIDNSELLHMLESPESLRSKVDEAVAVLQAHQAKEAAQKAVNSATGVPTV
Cytochrome P450 2C9, sequence (P11712 whole entry): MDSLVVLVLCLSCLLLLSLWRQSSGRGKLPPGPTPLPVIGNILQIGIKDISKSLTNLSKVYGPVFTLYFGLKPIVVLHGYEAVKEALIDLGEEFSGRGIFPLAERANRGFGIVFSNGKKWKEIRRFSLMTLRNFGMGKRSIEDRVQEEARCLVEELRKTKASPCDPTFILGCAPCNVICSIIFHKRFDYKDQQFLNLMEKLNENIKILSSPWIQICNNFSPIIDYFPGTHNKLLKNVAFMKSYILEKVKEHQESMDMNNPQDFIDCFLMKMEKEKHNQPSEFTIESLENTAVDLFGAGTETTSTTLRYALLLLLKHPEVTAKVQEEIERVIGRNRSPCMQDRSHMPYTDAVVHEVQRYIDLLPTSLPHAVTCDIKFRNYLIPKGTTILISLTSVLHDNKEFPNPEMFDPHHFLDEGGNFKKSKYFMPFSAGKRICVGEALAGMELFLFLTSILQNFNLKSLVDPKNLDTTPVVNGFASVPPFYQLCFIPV
T3 sequence (P08684 whole entry): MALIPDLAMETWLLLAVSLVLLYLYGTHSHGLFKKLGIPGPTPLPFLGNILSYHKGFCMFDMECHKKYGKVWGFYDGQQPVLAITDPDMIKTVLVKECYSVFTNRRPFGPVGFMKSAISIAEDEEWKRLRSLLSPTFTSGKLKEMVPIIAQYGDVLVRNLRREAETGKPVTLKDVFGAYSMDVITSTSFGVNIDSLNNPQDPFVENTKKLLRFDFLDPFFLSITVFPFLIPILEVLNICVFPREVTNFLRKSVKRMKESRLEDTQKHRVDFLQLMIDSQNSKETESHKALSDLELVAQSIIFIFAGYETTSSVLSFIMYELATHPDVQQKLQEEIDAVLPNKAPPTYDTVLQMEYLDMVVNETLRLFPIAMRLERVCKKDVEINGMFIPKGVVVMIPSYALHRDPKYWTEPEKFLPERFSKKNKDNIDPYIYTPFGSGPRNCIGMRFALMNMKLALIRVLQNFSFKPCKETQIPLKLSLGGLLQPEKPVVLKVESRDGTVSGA
T5 sequence (P49327 whole entry, the tested form may be a part): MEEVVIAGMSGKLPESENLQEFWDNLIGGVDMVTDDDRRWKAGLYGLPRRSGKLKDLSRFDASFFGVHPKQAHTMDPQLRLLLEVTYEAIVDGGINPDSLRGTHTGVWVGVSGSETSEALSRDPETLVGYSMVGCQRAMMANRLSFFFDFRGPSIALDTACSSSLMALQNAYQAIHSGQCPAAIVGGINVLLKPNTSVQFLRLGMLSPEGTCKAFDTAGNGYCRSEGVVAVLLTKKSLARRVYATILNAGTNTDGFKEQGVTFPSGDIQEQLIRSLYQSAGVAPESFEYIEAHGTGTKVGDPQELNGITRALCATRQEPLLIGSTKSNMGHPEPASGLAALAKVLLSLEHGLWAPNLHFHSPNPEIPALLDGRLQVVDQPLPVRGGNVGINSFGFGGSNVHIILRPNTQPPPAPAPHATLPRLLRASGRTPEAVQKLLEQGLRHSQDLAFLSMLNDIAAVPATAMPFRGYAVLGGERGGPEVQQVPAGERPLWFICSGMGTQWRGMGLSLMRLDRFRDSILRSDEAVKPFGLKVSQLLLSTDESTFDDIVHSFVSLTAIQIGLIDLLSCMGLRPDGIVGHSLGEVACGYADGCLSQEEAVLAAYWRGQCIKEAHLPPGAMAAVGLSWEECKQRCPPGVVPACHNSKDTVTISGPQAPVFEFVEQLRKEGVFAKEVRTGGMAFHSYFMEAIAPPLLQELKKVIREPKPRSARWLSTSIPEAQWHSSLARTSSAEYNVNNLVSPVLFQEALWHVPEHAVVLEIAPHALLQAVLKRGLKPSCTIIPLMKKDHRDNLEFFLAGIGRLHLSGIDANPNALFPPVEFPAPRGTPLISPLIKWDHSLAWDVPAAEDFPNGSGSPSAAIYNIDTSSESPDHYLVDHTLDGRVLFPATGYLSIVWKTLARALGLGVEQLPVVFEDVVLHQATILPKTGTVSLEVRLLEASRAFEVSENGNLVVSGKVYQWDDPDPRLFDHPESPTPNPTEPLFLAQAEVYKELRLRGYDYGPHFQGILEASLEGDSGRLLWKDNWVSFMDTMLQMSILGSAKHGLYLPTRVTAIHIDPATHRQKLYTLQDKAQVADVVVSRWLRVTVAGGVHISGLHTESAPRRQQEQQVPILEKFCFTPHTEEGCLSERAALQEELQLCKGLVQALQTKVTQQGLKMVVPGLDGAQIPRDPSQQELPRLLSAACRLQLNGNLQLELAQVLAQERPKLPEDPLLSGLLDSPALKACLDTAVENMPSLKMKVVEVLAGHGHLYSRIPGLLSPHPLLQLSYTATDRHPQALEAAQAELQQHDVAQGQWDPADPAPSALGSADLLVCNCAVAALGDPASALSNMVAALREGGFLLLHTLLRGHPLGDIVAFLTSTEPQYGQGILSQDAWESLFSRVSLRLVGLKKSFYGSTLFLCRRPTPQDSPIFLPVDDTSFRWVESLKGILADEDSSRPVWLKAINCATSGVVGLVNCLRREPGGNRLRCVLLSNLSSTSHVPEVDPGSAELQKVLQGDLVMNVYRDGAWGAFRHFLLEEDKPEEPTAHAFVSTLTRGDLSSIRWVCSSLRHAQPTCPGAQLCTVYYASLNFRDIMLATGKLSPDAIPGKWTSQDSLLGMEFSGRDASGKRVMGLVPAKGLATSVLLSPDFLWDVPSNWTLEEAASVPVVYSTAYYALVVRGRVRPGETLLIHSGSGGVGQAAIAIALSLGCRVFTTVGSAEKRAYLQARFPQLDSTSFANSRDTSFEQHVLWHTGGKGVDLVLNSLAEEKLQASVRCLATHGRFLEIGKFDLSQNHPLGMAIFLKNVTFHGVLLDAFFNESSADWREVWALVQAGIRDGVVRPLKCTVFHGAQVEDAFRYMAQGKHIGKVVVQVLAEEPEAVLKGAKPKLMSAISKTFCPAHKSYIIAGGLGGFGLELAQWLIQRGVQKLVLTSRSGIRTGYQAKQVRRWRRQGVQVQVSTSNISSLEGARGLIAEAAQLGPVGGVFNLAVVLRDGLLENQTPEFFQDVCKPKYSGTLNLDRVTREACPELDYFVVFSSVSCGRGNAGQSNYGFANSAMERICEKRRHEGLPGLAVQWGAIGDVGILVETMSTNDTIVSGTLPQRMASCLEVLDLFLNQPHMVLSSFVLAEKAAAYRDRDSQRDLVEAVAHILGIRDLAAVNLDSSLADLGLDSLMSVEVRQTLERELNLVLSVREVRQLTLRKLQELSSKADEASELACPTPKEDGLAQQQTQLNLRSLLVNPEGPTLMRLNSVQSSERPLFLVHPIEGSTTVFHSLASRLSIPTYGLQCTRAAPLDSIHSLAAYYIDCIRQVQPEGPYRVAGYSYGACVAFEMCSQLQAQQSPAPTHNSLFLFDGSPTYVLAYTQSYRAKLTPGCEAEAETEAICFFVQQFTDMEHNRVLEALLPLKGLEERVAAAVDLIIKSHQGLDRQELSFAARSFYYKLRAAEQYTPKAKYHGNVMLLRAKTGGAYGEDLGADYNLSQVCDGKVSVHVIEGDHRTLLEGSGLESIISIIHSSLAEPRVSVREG
Cytochrome P450 2D6, sequence (P10635 whole entry): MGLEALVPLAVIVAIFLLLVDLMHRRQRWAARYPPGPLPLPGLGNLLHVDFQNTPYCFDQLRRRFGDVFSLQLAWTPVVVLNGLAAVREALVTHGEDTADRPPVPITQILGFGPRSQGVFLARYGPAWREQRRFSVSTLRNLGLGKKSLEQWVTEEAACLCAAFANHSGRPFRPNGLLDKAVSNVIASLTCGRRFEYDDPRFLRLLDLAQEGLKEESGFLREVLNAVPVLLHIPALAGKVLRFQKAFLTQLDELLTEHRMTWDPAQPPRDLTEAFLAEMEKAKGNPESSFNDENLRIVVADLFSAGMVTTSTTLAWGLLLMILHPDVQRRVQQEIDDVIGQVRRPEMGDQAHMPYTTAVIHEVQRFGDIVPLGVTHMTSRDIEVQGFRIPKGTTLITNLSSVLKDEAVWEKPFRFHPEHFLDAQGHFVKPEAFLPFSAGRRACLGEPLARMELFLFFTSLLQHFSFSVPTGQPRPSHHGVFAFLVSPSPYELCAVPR

C/C(=N\NC(=S)NCCc1ccccc1)c1cccc(Br)c1
IC50 [1]: > 66 µM (inactive) | IC50 [2]: > 66 µM (inactive)

CCS(=O)(=O)N1CCN(c2c(Cl)cccc2[N+](=O)[O-])CC1
AC50 [3]: 15.8 µM (inconclusive) | AC50 [4]: inconclusive

Cn1c(=O)n(C)c2cc([N+](=O)[O-])c(N3CCN(S(=O)(=O)c4ccc(C(C)(C)C)cc4)CC3)cc21
IC50 [5]: 4.02 µM (active) | AC50 [6]: 3.53 µM (active) | AC50 [7]: > 70 µM (inactive) | IC50 [8]: 2.73 µM (active) | AC50 [9]: 9.33 µM (active)

NC(Cc1ccc([N+](=O)[O-])cc1)=NOC(=O)c1ccc2ccccc2c1
CC50 [10]: 33 µM (active) | IC50 [11]: > 50 µM (not active)

O=[N+]([O-])c1ccc(S(=O)(=O)Nc2ccc(-c3ccccc3)cc2)cc1
IC50 [12]: 5.95 µM (active) | IC50 [13]: 6.47 µM (active)

CCCn1nc2cc(C(=O)NC3CCCc4ccccc43)ccc2c1OCC (configuration not stated)
AC50 [14]: 25.1 µM (inconclusive) | AC50 [15]: 15.8 µM (inconclusive) | AC50 [16]: inconclusive

O=C(Nc1cc[n+](-c2nc3ccccc3nc2[N-]S(=O)(=O)c2ccc(Cl)cc2)cc1)c1cccs1
EC50 [17]: > 99 µM (inactive) | EC50 [18]: > 99 µM (inactive)

O=C(c1cccc(F)c1)N1CCC2(CC1)CCN(c1ccccc1)CC2
AC50 [4]: inconclusive

O=S(=O)(c1cccc2nsnc12)N1CCCC1
AC50 [3]: 14.1 µM (inconclusive) | AC50 [4]: inconclusive

COc1ccc(C(=O)N2CCC3(CC2)CCN(c2ccccc2)CC3)cc1
AC50 [4]: inconclusive

Cc1ccc(NC(=O)CC2SC3=NCCN3C2=O)cc1 (configuration not stated)
IC50 [1]: > 66 µM (inactive) | IC50 [2]: > 66 µM (inactive)

COc1ccc(OCCNc2cc(Cl)ccc2[N+](=O)[O-])cc1
EC50 [17]: > 99 µM (inactive) | EC50 [18]: > 99 µM (inactive)

O=C(O)CCCNC(=O)/C(=C\C=C\c1ccccc1)NC(=O)c1ccccc1Cl
IC50 [19]: 86.8 µM (active)

COc1ccc(-n2c(SCC(=O)Nc3ccc4c(c3)OCO4)nnc2C(C)N2CCCCC2)cc1 (configuration not stated)
IC50 [11]: > 50 µM (not active)

CC(C)(C)n1ncc2c(=O)n(CC(=O)NCc3ccccc3Cl)cnc21
AC50 [14]: 11.2 µM (inconclusive) | AC50 [16]: inconclusive

O=C(c1ccc([N+](=O)[O-])cc1)N1CCC(Cc2ccccc2)CC1
IC50 [12]: 10.9 µM (active) | IC50 [13]: 8.61 µM (active)

CC1=C(CC[C@H](C)CO)O[C@@H]2C[C@@H]3[C@H]4CC[C@H]5C[C@@H](O)CC[C@]5(C)[C@@H]4CC(=O)[C@@]3(C)[C@@H]12
AC50 [4]: inconclusive

O=C(O)c1cccc(S(=O)(=O)Nc2ccc(O)cc2Sc2nc3ccccc3s2)c1
IC50 [19]: 9.02 µM (active)

CCC1CCCCN1C(=S)NC(=O)c1cccc([N+](=O)[O-])c1 (configuration not stated)
IC50 [1]: > 66 µM (inactive) | IC50 [2]: > 66 µM (inactive)

O=c1[nH]n(-c2cccc3cccnc23)c(=O)c2ccccc12
AC50 [3]: 6.31 µM (inconclusive) | AC50 [15]: 25.1 µM (inconclusive) | AC50 [16]: inconclusive

CCOc1ccc(C(C)=O)cc1N1C(=O)C2C3C=CC(O3)C2C1=O (configuration not stated)
AC50 [20]: 39.8 µM (inconclusive) | AC50 [16]: inconclusive

COc1cc(CNc2nc[nH]n2)cc(Br)c1OC
IC50 [19]: 8.2 µM (active)

COc1ccccc1OCC(=O)Sc1ccc(C)cc1
IC50 [1]: > 66 µM (inactive) | IC50 [2]: > 66 µM (inactive)

COc1cc(NC(=O)COc2ccc(-n3cnnn3)cc2)c(OC)cc1Cl
IC50 [11]: 8.31 µM (active)

N#CCCn1c(=O)cnc2cnc(N3CCNCC3)nc21
AC50 [3]: 12.6 µM (inconclusive) | AC50 [16]: inconclusive

O=C(OCCNc1ccc(C(F)(F)F)cc1[N+](=O)[O-])c1cc2ccccc2oc1=O
EC50 [17]: 89.7 µM (inactive) | EC50 [18]: 27.7 µM (inactive)

C(#Cc1ccccc1)C[N+]1(CC#Cc2ccccc2)CCCCC1
IC50 [5]: < 0.25 µM (active) | EC50 [21]: > 160 µM (inactive) | IC50 [8]: < 0.25 µM (active) | EC50 [22]: > 38 µM (not active) | EC50 [23]: 1.88 µM (active) | EC50 [24]: > 60 µM (not active)

O=C(CSc1ccc([N+](=O)[O-])cn1)Nc1ccc2c(c1)OCO2
IC50 [12]: 0.981 µM (active) | IC50 [13]: 0.951 µM (active)

NC(=O)CSc1nnc(-c2cc(-c3cccs3)nc3ccccc23)o1
EC50 [17]: > 99 µM (inactive) | EC50 [18]: > 99 µM (inactive)

CCN1CCN(Cc2ccc(NC(=O)Nc3ccc(OC)cc3)cc2)CC1
IC50 [19]: 25.1 µM (active)

C[C@H](N[C@@H](C)CCc1ccccc1)[C@H](O)c1ccc(O)cc1
AC50 [20]: 10 µM (inconclusive) | AC50 [4]: inconclusive

Source: ChEMBL document CHEMBL1201862, “PubChem BioAssay data set” (2004)
